Values belong to the compound of their own block, whether it stands above or below them.
Assays:
[1] = test system: Lewis X Brown Norway F1 hearts transplanted to Lewis recipients; test: Rat cardiac allograft model, Allograft Study 1 (summary across three studies); type: in vivo; details: for absolute cardiac allograft survival (last day of graft survival): vehicle day +9
Description: Allograft rejection is defined as the expression of an immune reaction of the recipient, against foreign antigens of the transplanted tissue. This reaction is mediated by T lymphocytes. Cell adhesion events are of critical importance in the T-cell recognition of alloantigens, the trafficking of recipient immune and inflammatory cells into the graft, and the execution of cell-mediated effector functions. […] This beneficial therapeutic effect correlates with decreased infiltration by α4β1 positive cells, deposition of CS1-FN, and endothelial staining for VCAM-1, as determined by immunohistology/RNAse protection assay.
To further evaluate the therapeutic potential of α4β1 targeted therapy in transplantation rejection, three studies were conducted in a well-defined rat cardiac transplant model. The following report summarizes the data across all three studies.

rat cardiac allografts [2] = test: Rat cardiac allograft study, Allograft Study 3 (Table 21); type: in vivo; details: for number of surviving grafts within each group / percent of surviving grafts within a group: s.c., GG5/3 3 mg/kg, compound 30 mg/kg
Protocol: Cardiac allografts were established. […] A total of 20 allografts, amongst 4 groups, were evaluated in the study.

rat cardiac allografts [3] = test: Rat cardiac allograft study, Allograft Study 2 (Table 20); details: for number of surviving grafts within each group: s.c., GG5/3 3 mg/kg, compounds 30 mg/kg;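 for all read-outs here: lewis x Brown Norway F1 hearts grafted abdominally into male Lewis rats, palpated daily, rejection meaning complete loss of heartbeat, day 0 being surgery day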
Protocol: Hearts from Lewis X Brown Norway F1 hybrids were transplanted to the abdominal great vessels of Lewis recipients using standard microvascular techniques. Both rat strains were male inbred rats, weighing 200-300 g. Food and water was available at all times except during surgical and dosing procedures. The day of transplantation was noted as day 0. […] Allograft survival in the rats was evaluated by daily palpation of the transplanted heart through the recipient's flank. Rejection was taken as the day of complete cessation of the graft's heart beat. Upon determination of rejection, the abdomen of the recipient was incised and retracted to confirm cessation of the heart beat in the transplanted heart. If cessation of the heart beat was not confirmed the abdomen was surgically closed, and the grafted heart was evaluated daily.
Cardiac allografts were established. Dosing of compounds began on day 0, prior to transplantation and continued through day +10. […] The vehicle control, 10% ethanol/corn oil, was administered s.c., every 12 hours, day 0 through day +10. The antibody, GG5/3 in 0.9% saline, was administered at 3 mg/kg, s.c., on day 0, +3, +7 and +10. All GG5/3 animals received twice daily s.c. injections of 0.9% saline, every 12 hours, throughout day 0 through day +10. The vehicle control, 0.9% saline, was administered daily, s.c., day 0 through day +10. All dosing solutions were formulated daily at a constant dose volume of 5 ml/kg. The site of injection was rotated at each injection through four possible sites: right and left fore flank, right and left rear flank. A total of 28 allografts, amongst 5 groups, were evaluated in the study. Group 1, consisted of 6 animals treated with the monoclonal antibody, GG5/3. […] Allograft survival was evaluated by daily palpation of the transplanted heart through the recipient's flank. Rejection was taken as the day of complete cessation of graft's heart beat. Upon determination of rejection, the abdomen of the recipient was incised to confirm cessation of the heart beat in the transplanted heart. If cessation of the graft's heart beat was not confirmed the abdomen was surgically closed, and the graft was evaluated daily.

rat cardiac allografts [4] = test: Rat cardiac allograft study, Allograft Study 4 (Table 22);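 note: heterotopic abdominal heart transplants from Lewis × Brown Norway F1 donors into male Lewis rats, graft beating checked daily by flank palpation, rejection defined as complete stop of heartbeat, transplant day 0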; details: 30 mg/kg s.c. every 12 h, day -2 to +10
Protocol: Hearts from Lewis X Brown Norway F1 hybrids were transplanted to the abdominal great vessels of Lewis recipients using standard microvascular techniques. Both rat strains were male inbred rats, weighing 200-300 g. Food and water was available at all times except during surgical and dosing procedures. The day of transplantation was noted as day 0. Twelve hours following the last dose approximately 1 ml of blood was collected into lithium/heparin anti-coagulant tubes. If any graft was rejected prior to the last day of dosing, blood samples were taken 12 hours after dosing on the day that graft rejection was noted. All blood samples were centrifuged at 3000 rpm for 10 minutes and the plasma was harvested, frozen on dry ice and stored frozen at −20 C prior to analysis. Allograft survival in the rats was evaluated by daily palpation of the transplanted heart through the recipient's flank. Rejection was taken as the day of complete cessation of the graft's heart beat. Upon determination of rejection, the abdomen of the recipient was incised and retracted to confirm cessation of the heart beat in the transplanted heart. If cessation of the heart beat was not confirmed the abdomen was surgically closed, and the grafted heart was evaluated daily.
Cardiac allografts were established. Dosing of compounds began on day −2, 2 days prior to transplantation and continued through day +10. […] The vehicle control, 0.9% saline, pH adjusted to a value of 5, to match the dosing solution containing the N-[N-(3-pyridinesulfonyl)-L-3,3-dimethyl-4-thiaprolyl]-0-[1-methylpiperazin-4-ylcarbonyl]-L-tyrosine isopropyl ester, was administered via the same route, i.e. every 12 hours, day −2 through day +10. The antibody, GG5/3 in 0.9% saline, was administered at 3 mg/kg, s.c., on day 0, +3, +7 and +10. All GG5/3 animals received twice daily s.c. injections of 0.9% saline, every 12 hours, from day −2 through day +10. The vehicle control, 0.9% saline, was administered daily, s.c., day 0 through day +10. All dosing solutions were formulated daily at a constant dose volume of 5 ml/kg. The site of injection was rotated at each injection through four possible sites: right and left fore flank, right and left rear flank. A total of 21 allografts, amongst 5 groups, were evaluated in the study. […] Two animals within the 0.9% saline group received saline adjusted to a pH a value of 5. (The pH value of the N-[N-(3-pyridinesulfonyl)-L-3,3-dimethyl-4-thiaprolyl]-0-[1-methylpiperazin-4-ylcarbonyl]-L-tyrosine isopropyl ester dosing solution.) The remaining two animals received saline of pH 7. Group 2 consisted of 6 animals treated with the monoclonal antibody, GG5/3. […] Twelve hours following the last dose approximately 1 ml of blood was collected into lithium/heparin anti-coagulant tubes. If any graft was rejected prior to the last day of dosing, blood samples were taken 12 hours after dosing on the day that graft rejection was noted. All samples were centrifuged at 3000 rpm for 10 minutes and the plasma was harvested, frozen on dry ice and stored frozen at −20 C prior to dispatch for analysis. Allograft survival in the rats was evaluated by daily palpation of the transplanted heart through the recipient's flank. Rejection was taken as the day of complete cessation of graft's heart beat. Upon determination of rejection, the abdomen of the recipient was incised to confirm cessation of the heart beat in the transplanted heart. If cessation of the heart beat was not confirmed the abdomen was surgically closed, and the graft was evaluated daily.

rat cardiac allografts [5] = test: Rat cardiac allograft study, Allograft Study 5, dose response (Table 23); type: in vivo

melting point: 158 to 160 °C
SMILES: Cc1ccc(S(=O)(=O)N2CCC[C@H]2C(=O)N[C@@H](Cc2ccc(OC(=O)N3CCN(CCO)CC3)cc2)C(=O)OC(C)(C)C)cc1

SMILES: CC(C)OC(=O)[C@H](Cc1ccc(OC(=O)N(C)C)cc1)NC(=O)[C@H]1N(S(=O)(=O)c2cnn(C)c2)CSC1(C)C
absolute cardiac allograft survival (last day of graft survival) [1]: 37 day
number of surviving grafts within each group (rat cardiac allografts [2]; Day 0): 6
percent of surviving grafts within a group (rat cardiac allografts [2]; Day 0): 100%
number of surviving grafts within each group (rat cardiac allografts [2]; Day 1): 6
percent of surviving grafts within a group (rat cardiac allografts [2]; Day 1): 100%
number of surviving grafts within each group (rat cardiac allografts [2]; Day 2): 6
percent of surviving grafts within a group (rat cardiac allografts [2]; Day 2): 100%
number of surviving grafts within each group (rat cardiac allografts [2]; Day 3): 6
percent of surviving grafts within a group (rat cardiac allografts [2]; Day 3): 100%
number of surviving grafts within each group (rat cardiac allografts [2]; Day 4): 6
percent of surviving grafts within a group (rat cardiac allografts [2]; Day 4): 100%
number of surviving grafts within each group (rat cardiac allografts [2]; Day 5): 6
percent of surviving grafts within a group (rat cardiac allografts [2]; Day 5): 100%
number of surviving grafts within each group (rat cardiac allografts [2]; Day 6): 6
percent of surviving grafts within a group (rat cardiac allografts [2]; Day 6): 100%
number of surviving grafts within each group (rat cardiac allografts [2]; Day 7): 6
percent of surviving grafts within a group (rat cardiac allografts [2]; Day 7): 100%
number of surviving grafts within each group (rat cardiac allografts [2]; Day 8): 6
percent of surviving grafts within a group (rat cardiac allografts [2]; Day 8): 100%
number of surviving grafts within each group (rat cardiac allografts [2]; Day 9): 4
percent of surviving grafts within a group (rat cardiac allografts [2]; Day 9): 67%
number of surviving grafts within each group (rat cardiac allografts [2]; Day 10): 4
percent of surviving grafts within a group (rat cardiac allografts [2]; Day 10): 67%
number of surviving grafts within each group (rat cardiac allografts [2]; Day 11): 3
percent of surviving grafts within a group (rat cardiac allografts [2]; Day 11): 50%
number of surviving grafts within each group (rat cardiac allografts [2]; Day 12): 3
percent of surviving grafts within a group (rat cardiac allografts [2]; Day 12): 50%
number of surviving grafts within each group (rat cardiac allografts [2]; Day 13): 1
percent of surviving grafts within a group (rat cardiac allografts [2]; Day 13): 16%
number of surviving grafts within each group (rat cardiac allografts [2]; Day 14): 1
percent of surviving grafts within a group (rat cardiac allografts [2]; Day 14): 16%
number of surviving grafts within each group (rat cardiac allografts [2]; Day 15): 1
percent of surviving grafts within a group (rat cardiac allografts [2]; Day 15): 16%
number of surviving grafts within each group (rat cardiac allografts [2]; Day 16): 1
percent of surviving grafts within a group (rat cardiac allografts [2]; Day 16): 16%
number of surviving grafts within each group (rat cardiac allografts [2]; Day 17): 0
percent of surviving grafts within a group (rat cardiac allografts [2]; Day 17): 0%
number of surviving grafts within each group (rat cardiac allografts [2]; Day 18): 0
percent of surviving grafts within a group (rat cardiac allografts [2]; Day 18): 0%
number of surviving grafts within each group (rat cardiac allografts [2]; Day 19): 0
percent of surviving grafts within a group (rat cardiac allografts [2]; Day 19): 0%
graft acceptance out to day (rat cardiac allografts [2]; compound 30 mg/kg s.c. every 12 h, day -2 to +10, GG5/3 3 mg/kg s.c. day 0, +3, +7, +10): 16 days
number of surviving grafts within each group (rat cardiac allografts [3]; Day 0): 6
number of surviving grafts within each group (rat cardiac allografts [3]; Day 1): 6
number of surviving grafts within each group (rat cardiac allografts [3]; Day 2): 6
number of surviving grafts within each group (rat cardiac allografts [3]; Day 3): 6
number of surviving grafts within each group (rat cardiac allografts [3]; Day 4): 6
number of surviving grafts within each group (rat cardiac allografts [3]; Day 5): 6
number of surviving grafts within each group (rat cardiac allografts [3]; Day 6): 6
number of surviving grafts within each group (rat cardiac allografts [3]; Day 7): 6
number of surviving grafts within each group (rat cardiac allografts [3]; Day 8): 6
number of surviving grafts within each group (rat cardiac allografts [3]; Day 9): 6
number of surviving grafts within each group (rat cardiac allografts [3]; Day 10): 5
number of surviving grafts within each group (rat cardiac allografts [3]; Day 11): 3
number of surviving grafts within each group (rat cardiac allografts [3]; Day 12): 3
number of surviving grafts within each group (rat cardiac allografts [3]; Day 13): 2
number of surviving grafts within each group (rat cardiac allografts [3]; Day 14): 1
number of surviving grafts within each group (rat cardiac allografts [3]; Day 15): 1
number of surviving grafts within each group (rat cardiac allografts [3]; Day 16): 0
graft survival (in words) (rat cardiac allografts [3]; compounds 30 mg/kg s.c. every 12 h, GG5/3 3 mg/kg s.c. day 0, +3, +7, +10): significant graft survival, resembling the results obtained from the GG5/3 group
allograft acceptance compared with GG5/3 (rat cardiac allografts [4]): significantly prolong allograft acceptance beyond the level obtain with GG5/3
graft survival rate on day +19 (rat cardiac allografts [4]): Fifty percent or greater
longest surviving graft (one graft) (rat cardiac allografts [4]): 37 days

SMILES: CC(C)OC(=O)[C@H](Cc1ccc(OC(=O)N2CCN(C)CC2)cc1)NC(=O)[C@H]1N(S(=O)(=O)c2cccnc2)CSC1(C)C [Example 379]
graft survival rate on day +14 [1]: 66%
graft survival rate out to day +30 [1]: 33%
absolute cardiac allograft survival (last day of graft survival) [1]: 41 day
day rejection begins (rat cardiac allografts [5]; 3 mg/kg s.c. every 12 h): 7 days
day rejection is completed (rat cardiac allografts [5]; 3 mg/kg s.c. every 12 h): ≤ 10 days
protection against graft rejection (rat cardiac allografts [5]; 3 mg/kg s.c. every 12 h): did not provide any protection against graft rejection
day rejection begins (rat cardiac allografts [5]; 10 mg/kg s.c. every 12 h): 8 days
graft survival rate (rat cardiac allografts [5]; 10 mg/kg s.c. every 12 h, by day +22): 20%
graft acceptance (in words) (rat cardiac allografts [5]; 30 mg/kg s.c. every 12 h): prolonged graft acceptance
graft survival rate (rat cardiac allografts [5]; 30 mg/kg s.c. every 12 h, day +22, study still in progress): 83%
allograft acceptance compared with GG5/3 (rat cardiac allografts [4]): significantly prolong allograft acceptance beyond the level obtain with GG5/3
graft survival rate on day +19 (rat cardiac allografts [4]): Fifty percent or greater
longest surviving graft (one graft) (rat cardiac allografts [4]): 41 days

Source: US20060004019A1, “Steroid sparing agents and methods of using same” (priority 2004, published 2006)
